Data on eight compounds can be found in patent US20060128608A1, “Novel chemical compounds and their use” (priority 2002, published 2006).

In brackets after ≈: the same amount, converted by molar mass.

The first assay has as its system E.coli ATCC25922. Description: Antibiotic activity: minimum inhibitory concentration (MIC). Format: cell-based. The following applies: Escherichia coli; strain ATCC25922. How it is done: (§1) Antibiotic activities were determined using measurement of minimum inhibitory concentrations by standard procedures referring to the Manual of Commercial Methods in Clinical Microbiology. Ed. Allan L. Truant. ASM Press (2002) and are reported as concentrations (μM).
In the case of `NC1CC(O)C(CNC(=O)[C@@H](N)CC(=O)O)OC1OC1C(N)CC(N)C(OC2OC(CO)C(O)C(N)C2O)C1O` (stereo partly drawn) [Compound 33], the MIC (usually the smallest concentration in the dilution series that meets the test's criterion for growth inhibition) was over 32 µM.

In a further assay the test system is P.aeruginosa ATCC27853. The assay is described as above. The class given is cell-based. The following applies: Pseudomonas aeruginosa; strain ATCC27853. How it is done: as §1
In the case of `NCC[C@H](O)C(=O)N[C@@H]1C[C@H](N)[C@@H](O[C@H]2O[C@H](CN)[C@@H](O)[C@H](O)[C@H]2O)[C@H](O)[C@H]1O[C@H]1O[C@H](CO)[C@@H](O)[C@H](N)[C@H]1O` [Amikacin, reference compound], the MIC was 7.5 µM (≈ 4.39 µg/mL).

In turn, `NCC1OC(OC2C(N)CC(N)C(OC3OC4COC(=O)CCCCCCCCCCC(=O)OC4C(N)C3O)C2O)C(N)CC1O` (stereo not drawn) [Compound 30] displayed an MIC of 64 µM (≈ 42.4 µg/mL). Regarding `CCCCCCC(=O)OCC1OC(OC2C(N)CC(N)C(OC3OC(CN)C(OC(=O)CCCCCC)CC3N)C2O)C(OC(=O)CCCCCC)C(N)C1OC(=O)CCCCCC` (stereo not drawn) [Compound 31], the MIC turned out to be 32 µM (≈ 29.3 µg/mL). `NC1CC(O)C(CNC(=O)C[C@H](N)C(=O)O)OC1OC1C(N)CC(N)C(OC2OC(CO)C(O)C(N)C2O)C1O` (stereo partly drawn) [Compound 32] had an MIC of over 64 µM. As for `NC1CC(O)C(CNC(=O)[C@@H](N)CC(=O)O)OC1OC1C(N)CC(N)C(OC2OC(CO)C(O)C(N)C2O)C1O` (stereo partly drawn) [Compound 33], the MIC was over 64 µM. The compound `NC[C@H]1O[C@H](O[C@H]2[C@H](O)[C@@H](O[C@H]3O[C@H](CO)[C@@H](O)[C@H](N)[C@H]3O)[C@H](N)C[C@@H]2N)[C@H](N)C[C@@H]1O` [Tobramycin, reference compound] displayed an MIC of 2 µM (≈ 0.935 µg/mL).

The same assay, now with this note: strain ATCC27853.
For `CCCCCCCCCCCCCCCC(=O)OCC1OC(OC2C(N)CC(N)C(OC3OC(CN)C(O)CC3N)C2O)C(O)C(N)C1O` (stereo not drawn) [Compound 25, Tobramycin 6″-Palmitoyl Ester], the MIC was 16 µM (≈ 11.3 µg/mL). Consider Neomycin [reference compound], for which the MIC was 30 µM.
